Reference: patent US20260274861A1, “FUSED RING COMPOUND, PREPARATION METHOD THEREFOR AND MEDICINAL APPLICATION THEREOF” (JIANGSU HENGRUI PHARMACEUTICALS CO., LTD., priority 2022, published 2026)

Tests used:
Format in all cases: cell-based
AsPC-1 cells = assay: Inhibition of 3D proliferation of AsPC-1 cells (CellTiter-Glo 3D); conditions: Homo sapiens, ASPC1, 120 h, 5 days
Method: On the first day of the experiment, well-grown AsPC-1 cells with 70%-80% confluency were digested and resuspended in an RPMI 1640 culture medium (Hyclone, SH30809.01) containing 10% FBS, and the cell density was adjusted to the desired level. The cell suspension was added to a U-shaped low-adsorption 96-well plate (Corning, CLS7007-24EA) at 90 μL/well, with a cell density of 1500 cells/well. The cell plate was centrifuged at 2500 rpm for 5 min and then incubated overnight in a 37° C., 5% CO2 incubator. The next day, 20 mM test compounds dissolved in DMSO were diluted to an initial concentration of 2 mM and then serially diluted 5-fold, and a total of 9 concentration points were obtained. Control wells were set using DMSO. The serially diluted compounds were then further diluted 20-fold with a culture medium. The test compounds, diluted with the culture medium, were added to the cell plate at 10 μL/well, with the final concentrations of the compounds being 9 concentration points obtained by 5-fold serial dilution from an initial concentration of 10 μM. Cell wells containing 0.5% DMSO were set as vehicle control wells, and wells containing only the culture medium and 0.5% DMSO were set as blank control wells. A duplicate well was set for each concentration of the compounds and the control wells, with the final concentration of DMSO in each well being 0.5%. The cell plate was centrifuged at 2500 rpm for 3 min and then incubated in a 37° C., 5% CO2 incubator for 5 days. On the seventh day, the 96-well cell culture plate was taken out, and 50 μL of the CellTiter-Glo® Luminescent 3D Cell Viability Assay reagent (Promega, G^9683) was added to each well. The plates were shaken at room temperature in the dark for 25 min. The contents in the wells were pipetted up and down for good uniformity, and then 100 μL of the mixture was transferred from each well to a white impermeable OptiPlate™-96-well plate (PerkinElmer, 6005290). The luminescence signal values were obtained using a multi-mode microplate reader (PerkinElmer, EnVision2105).
The inhibition rate was calculated using the formula: inhibition rate=(luminescence valuevehicle control well−luminescence valuetest compound)/(luminescence valuevehicle control well−luminescence valueblank control well)×100%. Curves were plotted using GraphPad Prism software based on the various concentrations of the compounds and the corresponding inhibition rates, and IC50 values for the compounds were calculated.

AGS cells = assay: Inhibition of 3D proliferation of AGS cells (CellTiter-Glo 3D); conditions: Homo sapiens, 120 h, 5 days
Method: (§1) The inhibitory effects of the compounds of the present disclosure on the KRAS target were evaluated by assessing the inhibitory effects of the compounds of the present disclosure on the 3D proliferation of GP2d and AGS cells.
(§2) AGS cells were cultured in a complete culture medium, namely an RPM11640 medium (Hyclone, SH30809.01) containing 10% fetal bovine serum (Corning, 35-076-CV). On the first day of the experiment, the AGS cells were seeded into a 96-well low-adsorption plate (Corning, CLS7007-24EA) with a complete culture medium at a density of 1000 cells/well, with each well containing 90 μL of a cell suspension. The plate was centrifuged at 2000 rpm for 5 min at room temperature and then incubated overnight in a 37° C., 5% CO2 cell incubator.
(§3) The next day, the test compounds, serially diluted in a complete culture medium, were added at 10 μL/well. The final concentrations of the compounds for GP2d cells were 9 concentration points obtained by 5-fold serial dilution from 1 μM, and the final concentrations of the compounds for AGS cells were 9 concentration points obtained by 5-fold serial dilution from […]. A blank control containing 0.5% DMSO was set for both types of cells. The plates were incubated in a 37° C., 5% CO2 cell incubator for 5 days. On the seventh day, the 96-well cell culture plates were taken out, and 50 μL of the CellTiter-Glo® 3D Cell Viability Assay reagent (Promega, G^9682) was added to each well. The plates were shaken at room temperature in the dark for 25 min. The contents in the wells were pipetted for good uniformity, and 100 μL of the mixture was transferred from each well to a white impermeable 96-well plate (PerkinElmer, 6005290). The luminescence signal values were obtained using a multi-mode microplate reader (PerkinElmer, EnVision2105).

GP2d cells = assay: Inhibition of 3D proliferation of GP2d cells (CellTiter-Glo 3D); conditions: 120 h, 5 days
Method: as §1
as §2, with “GP2d” for “AGS”, “a DMEM/high glucose culture” for “an RPM11640”, “SH30243.01)” for “SH30809.01)”
as §3

**Q.** CCc1c(F)ccc2cc(O)cc(-c3nc4c5c(nc(OCC6(CN7CCOCC7)CC6)nc5c3F)N3C[C@H]5CC[C@H](N5)[C@H]3[C@H](C)O4)c12 [Example 5, 5-Ethyl-6-fluoro-4-((5S,5aS,6S,9R)-1-fluoro-5-methyl-12-((1-(morpholinomethyl)cyclopropyl)methoxy)-5a,6,7,8,9,10-hexahydro-5H-4-oxa-3,10a,11,13,14-pentaaza-6,9-methanonaphtho[1,8-ab]heptalen-2-yl)naphthalen-2-ol] was tested. Which IC50 (AsPC-1 cells) did it give?
**A.** 5700 pM

**Q.** And the IC50 (AGS cells)?
**A.** 8700 pM

**Q.** And the IC50 (GP2d cells)?
**A.** 900 pM

**Q.** How did the IC50 (GP2d cells) turn out when CCc1c(F)ccc2cc(O)cc(-c3nc4c5c(nc(OCC6(CN7CC/C(=C\F)C7)CC6)nc5c3F)N3C[C@H]5CC[C@H](N5)[C@H]3[C@H](C)O4)c12 [Example 11, 5-Ethyl-6-fluoro-4-((5S,5aS,6S,9R)-1-fluoro-12-((1-(((E)-3-(fluoromethylene)pyrrolidin-1-yl)methyl)cyclopropyl)methoxy)-5-methyl-5a,6,7,8,9,10-hexahydro-5H-4-oxa-3,10a,11,13,14-pentaaza-6,9-methanonaphtho[1,8-ab]heptalen-2-yl)naphthalen-2-ol] was run?
**A.** 700 pM

**Q.** CCc1c(F)ccc2cc(O)cc(-c3nc4c5c(nc(OCC6(CN7CC8CC(=C(F)F)CC8C7)CC6)nc5c3F)N3C[C@H]5CC[C@H](N5)[C@H]3[C@H](C)O4)c12 (stereo partly drawn) [Example 14] was tested. Which IC50 (GP2d cells) did it give?
**A.** 1600 pM

**Q.** C=C1CN2CC(=C)CC2(COc2nc3c4c(nc(-c5cc(O)cc6ccc(F)c(CC)c56)c(F)c4n2)O[C@@H](C)[C@@H]2[C@@H]4CC[C@H](CN32)N4)C1 [Example 17, 4-((5S,5aS,6S,9R)-12-((2,6-Dimethylenetetrahydro-1H-pyrrolizin-7a(5H)-yl)methoxy)-1-fluoro-5-methyl-5a,6,7,8,9,10-hexahydro-5H-4-oxa-3,10a,11,13,14-pentaaza-6,9-methanonaphtho[1,8-ab]heptalen-2-yl)-5-ethyl-6-fluoronaphthalen-2-ol] was tested. Which IC50 (GP2d cells) did it give?
**A.** 900 pM

**Q.** Which IC50 (GP2d cells) does the source give for CCc1c(F)ccc2cc(O)cc(-c3nc4c5c(nc(OCC67CCCN6CC(=C(F)F)C7)nc5c3F)N3C[C@H]5CC[C@H](N5)[C@H]3[C@H](C)O4)c12 (stereo partly drawn) [Example 18, 4-((5S,5aS,6S,9R)-12-((2-(Difluoromethylene)tetrahydro-1H-pyrrolizin-7a(5H)-yl)methoxy)-1-fluoro-5-methyl-5a,6,7,8,9,10-hexahydro-5H-4-oxa-3,10a,11,13,14-pentaaza-6,9-methanonaphtho[1,8-ab]heptalen-2-yl)-5-ethyl-6-fluoronaphthalen-2-ol] here?
**A.** 1200 pM

**Q.** What does the source list for CCc1c(F)ccc2cc(O)cc(-c3nc4c5c(nc(OCC6(CN7CCC(=CF)CC7)CC6)nc5c3F)N3C[C@H]5CC[C@H](N5)[C@H]3[C@H](C)O4)c12 [Example 23, 5-Ethyl-6-fluoro-4-((5S,5aS,6S,9R)-1-fluoro-12-((1-((4-(fluoromethylene)piperidin-1-yl)methyl)cyclopropyl)methoxy)-5-methyl-5a,6,7,8,9,10-hexahydro-5H-4-oxa-3,10a,11,13,14-pentaaza-6,9-methanonaphtho[1,8-ab]heptalen-2-yl)naphthalen-2-ol]?
**A.** IC50 (AsPC-1 cells): 7900 pM; IC50 (GP2d cells): 200 pM

**Q.** With C[C@@H]1Oc2nc(-c3cc(N)cc(Cl)c3C(F)(F)F)c(F)c3nc(OCC4(CN5CCC(=CF)CC5)CC4)nc(c23)N2C[C@H]3CC[C@H](N3)[C@@H]12 [Example 36, 3-Chloro-5-((5S,5aS,6S,9R)-1-fluoro-12-((1-((4-(fluoromethylene)piperidin-1-yl)methyl)cyclopropyl)methoxy)-5-methyl-5a,6,7,8,9,10-hexahydro-5H-4-oxa-3,10a,11,13,14-pentaaza-6,9-methanonaphtho[1,8-ab]heptalen-2-yl)-4-(trifluoromethyl)aniline] as the compound, how does the IC50 (AsPC-1 cells) read?
**A.** 200 pM

**Q.** What about the IC50 (AGS cells) of the same compound?
**A.** 900 pM

**Q.** And the IC50 (GP2d cells)?
**A.** 60 pM

**Q.** With Cc1cc(N)c(F)c(-c2nc3c4c(nc(OCC5(CN6CCC(=CF)CC6)CC5)nc4c2F)N2C[C@H]4CC[C@H](N4)[C@H]2[C@H](C)O3)c1C(F)(F)F [Example 38, 2-Fluoro-3-((5S,5aS,6S,9R)-1-fluoro-12-((1-((4-(fluoromethylene)piperidin-1-yl)methyl)cyclopropyl)methoxy)-5-methyl-5a,6,7,8,9,10-hexahydro-5H-4-oxa-3,10a,11,13,14-pentaaza-6,9-methanonaphtho[1,8-ab]heptalen-2-yl)-5-methyl-4-(trifluoromethyl)aniline] as the compound, how does the IC50 (AsPC-1 cells) read?
**A.** 1700 pM

**Q.** What about the IC50 (AGS cells) of the same compound?
**A.** 5000 pM

**Q.** And the IC50 (GP2d cells)?
**A.** 70 pM

**Q.** For Cc1cc(N)c(F)c(-c2nc3c4c(nc(OCC5(CN6CCC(=C(F)F)CC6)CC5)nc4c2F)N2C[C@H]4CC[C@H](N4)[C@H]2[C@H](C)O3)c1C(F)(F)F [Example 40, 3-((5S,5aS,6S,9R)-12-((1-((4-(Difluoromethylene)piperidin-1-yl)methyl)cyclopropyl)methoxy)-1-fluoro-5-methyl-5a,6,7,8,9,10-hexahydro-5H-4-oxa-3,10a,11,13,14-pentaaza-6,9-methanonaphtho[1,8-ab]heptalen-2-yl)-2-fluoro-5-methyl-4-(trifluoromethyl)aniline], which IC50 (GP2d cells) is on record?
**A.** 600 pM

**Q.** What does the source list for C[C@@H]1Oc2nc(-c3ccc(F)c4sc(N)c(C#N)c34)c(F)c3nc(OCC4(CN5CCC(=C(F)F)CC5)CC4)nc(c23)N2C[C@H]3CC[C@H](N3)[C@@H]12 [Example 41, 2-Amino-4-((5S,5aS,6S,9R)-12-((1-((4-(difluoromethylene)piperidin-1-yl)methyl)cyclopropyl)methoxy)-1-fluoro-5-methyl-5a,6,7,8,9,10-hexahydro-5H-4-oxa-3,10a,11,13,14-pentaaza-6,9-methanonaphtho[1,8-ab]heptalen-2-yl)-7-fluorobenzo[b]thiophene-3-carbonitrile]?
**A.** IC50 (AsPC-1 cells): 3700 pM; IC50 (GP2d cells): 400 pM

**Q.** What does the source list for Cc1nc(N)cc(-c2nc3c4c(nc(OCC5(CN6CCC(=CF)CC6)CC5)nc4c2F)N2C[C@H]4CC[C@H](N4)[C@H]2[C@H](C)O3)c1C(F)(F)F [Example 42, 4-((5S,5aS,6S,9R)-1-Fluoro-12-((1-((4-(fluoromethylene)piperidin-1-yl)methyl)cyclopropyl)methoxy)-5-methyl-5a,6,7,8,9,10-hexahydro-5H-4-oxa-3,10a,11,13,14-pentaaza-6,9-methanonaphtho[1,8-ab]heptalen-2-yl)-6-methyl-5-(trifluoromethyl)pyridin-2-amine]?
**A.** IC50 (AsPC-1 cells): 1800 pM; IC50 (AGS cells): 5200 pM; IC50 (GP2d cells): 210 pM
